Key:
ear vessels of the mice = assay: In vivo microscopy of ear vessels: FITC-dextran leakage and vascular diameter after histamine; design: species or system mouse
Protocol: To visualize the ear vessels of the mice, 70 kDa fluorescein isothiocyanate-dextran (10 mg/kg, manufactured by Sigma-Aldrich) was injected intravenously. Then, immediately after the administration of fluorescein isothiocyanate-dextran, 5,6-DiHETE (0.1 μg) was administered by instillation (percutaneously administered) as a pretreatment, and this group of mice was designated as a “5,6-DiHETE-administered group.” As a control group, a group of mice not administered with 5,6-DiHETE was designated as a “[…]-administered group”. Then, 15 minutes after the administration by instillation, histamine (400 μg) was administered by instillation (percutaneously administered) into the ventral surface of the ears for both the groups. Next, the mice were placed on the stage of a microscope confocal microscope (ECLIPSE Ti with C1 confocal system, manufactured by Nikon Corporation), and their body temperatures were maintained at 37° C. Dextran leakage and vascular diameter in the ears were monitored every minute in a period from 0 to 30 minutes after the administration of histamine using EZ-C1 Free Viewer (manufactured by Nikon Corporation), and the dextran leakage, artery diameter and vein diameter were quantified according to the description of Omori, K. et al., British Journal of Pharmacology, 171:4879-4889 (2014). It is known that smooth muscle contraction reduces the downstream blood flow and limits the vascular leakage, whereas smooth muscle relaxation (increase of vascular diameter) increases the blood flow, thereby leading to vascular leakage.

mouse aortae = assay: Measurement of vascular contraction of aorta (aortic ring specimens)
Protocol: After excision of the thoracic aortae from untreated mice and removal of fat and connective tissue, the aortae were cut into rings to prepare aortic ring specimens. The ring specimens were immersed in a liquid tank filled with a normal nutrient solution (physiological saline solution containing 136.9 mM NaCl, 5.4 mM KCl, 5.5 mM glucose, 23.8 mM NaHCO3, 1.5 mM CaCl2, 1.0 mM MgCl2 and 0.01 mM EDTA), and two stainless hooks were penetrated through the lumens of the ring specimens. One end of each of the stainless hooks was fixed, and the other end thereof was connected to a force-displacement transducer (T7-30-240, manufactured by Orientec Co., Ltd.) connected to a strain amplifier (3134 strain AMPL, manufactured by Yokogawa Test & Measurement Corporation). Then, the following operation (a), (b) or (c) was performed.
(a) Norepinephrine (manufactured by Sigma) was cumulatively added into the liquid tank containing the ring specimens after stabilization of each contraction (every about 30 minutes) so as to attain 0.001 μM, 0.01 μM, 0.1 μM and 1 μM, and this group was designated as a “norepinephrine-administered group” (n=4) (FIG. 3A). 5,6-DiHETE was cumulatively added into the liquid tank containing the ring specimen after stabilization of each contraction (every about 30 minutes) so as to attain 0.001 μM, 0.01 μM, 0.1 μM and 1 μM, and this group was designated as a “5,6-DiHETE-administered group” (n=4) (FIG. 3A).
(b) Norepinephrine was added into the liquid tank containing the ring specimens so as to attain 0.3 μM, and precontraction was induced by administration of norepinephrine (FIG. 3B). Then, after the contraction by the administration of norepinephrine was stabilized, acetylcholine (manufactured by Sigma) was cumulatively added after stabilization of each relaxation reaction (every about 15 minutes) so as to attain 0.03 μM, 0.1 μM, 0.3 μM and 1 μM, and this group was designated as an “acetylcholine-administered group” (FIG. 3B). After the contraction by the administration of norepinephrine was stabilized, 5,6-DiHETE was cumulatively added every about 15 minutes so as to attain 0.001 μM, 0.01 μM, 0.1 μM and 1 μM, and this group was designated as a “5,6-DiHETE-administered group” (n=4) (FIG. 3B).
(c) In order to verify the effect of 5,6-DiHETE on the acetylcholine administration, norepinephrine was added into the liquid tank containing the ring specimens so as to attain 1 μM. After the contraction by the administration of norepinephrine was stabilized, 5,6-DiHETE or a vehicle (solvent alone) was added so as to attain 1 μM. […]
In the above operations (a) to (c), tension (contractile force) generated in the aortic ring specimens was measured isometrically over time using the above force-displacement transducer under a resting tension of 3 mN, and recorded.

[1] = test system: calcium ion concentration in HUVECs; assay: Histamine-induced increase of calcium ion concentration (fura-2); type: cell-based, human; conditions: histamine 10 μM
Protocol: These cells (passages 4 to 9) were used for experiments after 4-hour starvation in EBM-2 (manufactured by Lonza K.K.) containing 2% FBS.
HUVECs were incubated with a calcium fluorescence indicator (3 μg fura-2/AM containing 0.11% Cremophor EL) for 30 minutes and washed with an HEPES buffer three times. […] Then, 5 minutes after the addition of each reagent, histamine was added so as to attain 10 μM. In addition, a group to which histamine was added so as to attain 10 μM without pretreatment was also prepared. A cover slip was placed in a specialized airtight chamber mounted onto the stage of a microscope maintained at 37° C. The HUVECs were excited at 340 nm and 380 nm and the emitted fluorescence signal was measured every 3 seconds at 510 nm for 60 seconds. The fluorescence ratio (R:F340/F380) was determined using a fluorescence imaging system (AQUACOSMOS, manufactured by Hamamatsu Photonics K.K.). After the experiment, 1 μM ionomycin was added and the fluorescence changes were measured in the presence of 0 or 1.5 mM calcium ions. The calcium ion concentration was indicated as A fluorescence ratio. AUC was calculated 1 minute after each stimulus to evaluate the A fluorescence ratio. It is known that the increase of calcium ion concentration in endothelial cells promotes NO production by eNOS phosphorylation and […] smooth muscle cells (Garcia-Cardena, G. et al., Nature, 392: 821-824(1998); and Luo, Z. et al., The Journal of clinical investigation, 106: 493-499(2000)).

[2] = 0.1 μg pretreatment 15 minutes before histamine 400 μg

CC/C=C\C/C=C\C/C=C\C/C=C\C[C@@H](O)[C@@H](O)CCCC(=O)O (racemic) [5,6-DiHETE, (±) 5,6-dihydroxy-8Z,11Z,14Z,17Z-eicosatetraenoic acid] was tested, and the “histamine-induced increase of vein diameter” value (ear vessels of the mice; [2]) was “not inhibited”, the “mean fluorescence intensity of FITC-dextran extravasation vs histamine-administered group” value (ear vessels of the mice; [2]) was “significantly decreased” and the “artery diameter as compared with arteries nonstimulated with histamine” value (ear vessels of the mice; 0.1 μg pretreatment by instillation 15 minutes before histamine 400 μg) was 132±15%. The “acetylcholine-induced aortic relaxation vs vehicle-administered group” value (mouse aortae; 1 μM pretreatment, precontraction 1 μM norepinephrine, acetylcholine 0.03-1 μM) was “significantly attenuated”, the contraction of aorta (mouse aortae; cumulative addition 0.001, 0.01, 0.1 and 1 μM) was “no contraction was caused” and the “effect on aorta precontracted by norepinephrine” value (mouse aortae; precontraction 0.3 μM norepinephrine, cumulative 0.001, 0.01, 0.1 and 1 μM) was “did not affect the precontraction by norepinephrine”. For the same molecule, the “calcium ion concentration, AUC at 1 minute after stimulation” value (“calcium ion concentration, AUC” below) ([1]; pretreatment 0.03 μM) was 7.8±2.3, the “calcium ion concentration, AUC” value ([1]; pretreatment 0.1 μM) was 5.9±1.5 and the “calcium ion concentration, AUC” value ([1]; pretreatment 0.3 μM) was 1.8±1.1.

Source: US12285434B2, “Therapeutic, preventive, or improvement agent for inflammatory disease and allergic disease” (The University of Tokyo, priority 2018, dated 2025)
